Assay type in all cases: cell-based
Assay [1] deals with T1, human GLP-1 receptor (GLP-1R) (Homo sapiens, UniProt P43220).
T1 construct: expressed in transfected cells
As to the kind of experiment: cAMP assay, human GLP-1R cells. The procedure, abridged: (§1)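 Peptide-stimulated cAMP measured by two-step HTRF after a 30 min room-temperature incubation with receptor-expressing cells (hGLP-1R, hGIPR at 1×10^5 cells/ml; hGCGR at 2×10^5 cells/ml). Duplicate dilutions; EC50 from 4-parameter logistic fit of % Delta F.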
(Cyclic AMP is a second messenger, typically raised through Gs and lowered through Gi signalling.)

Assay [2] deals with T2, human glucagon receptor (GCGR) (Homo sapiens, UniProt P47871).
T2 construct: expressed in transfected cells
T2 sequence (P47871 26-477): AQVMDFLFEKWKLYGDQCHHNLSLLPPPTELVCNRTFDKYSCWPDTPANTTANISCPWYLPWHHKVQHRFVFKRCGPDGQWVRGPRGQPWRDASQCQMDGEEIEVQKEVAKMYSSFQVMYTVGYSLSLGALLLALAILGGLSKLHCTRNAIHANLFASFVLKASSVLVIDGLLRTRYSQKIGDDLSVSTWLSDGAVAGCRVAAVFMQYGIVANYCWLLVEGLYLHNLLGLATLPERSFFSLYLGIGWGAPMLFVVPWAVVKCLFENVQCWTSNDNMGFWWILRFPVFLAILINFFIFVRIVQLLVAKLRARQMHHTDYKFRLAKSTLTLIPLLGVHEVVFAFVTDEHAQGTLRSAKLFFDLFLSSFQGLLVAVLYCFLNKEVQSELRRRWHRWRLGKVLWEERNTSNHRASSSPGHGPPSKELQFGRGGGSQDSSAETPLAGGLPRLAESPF
As to the kind of experiment: cAMP assay, human GCGR cells. The method in brief:
as §1

Assay [3] has as its target T3, human glucose-dependent insulinotropic peptide receptor (GIPR) (Homo sapiens, UniProt P48546).
T3 construct: expressed in transfected cells
T3 sequence (P48546 22-466): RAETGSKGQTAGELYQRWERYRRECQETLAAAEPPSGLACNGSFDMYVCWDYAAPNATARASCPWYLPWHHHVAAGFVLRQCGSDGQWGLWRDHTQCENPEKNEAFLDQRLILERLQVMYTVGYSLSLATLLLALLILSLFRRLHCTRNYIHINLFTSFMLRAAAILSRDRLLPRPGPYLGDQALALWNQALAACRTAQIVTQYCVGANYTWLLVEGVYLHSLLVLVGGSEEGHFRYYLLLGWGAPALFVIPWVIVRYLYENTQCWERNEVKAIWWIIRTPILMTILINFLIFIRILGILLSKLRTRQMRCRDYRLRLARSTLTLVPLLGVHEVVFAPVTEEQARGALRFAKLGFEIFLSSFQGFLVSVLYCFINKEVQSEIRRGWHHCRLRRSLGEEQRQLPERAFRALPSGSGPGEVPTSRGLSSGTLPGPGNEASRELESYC
As to the kind of experiment: cAMP assay, human GIPR cells. The procedure, abridged: as §1

Setting [4] is: cAMP assay, first determination (n1), read-out: Primary assay EC50 GLP-1R n1.
[5] abbreviates: cAMP assay, second determination (n2), read-out: Primary assay EC50 GLP-1R n2.
Where [6] appears, read: mean of n1 and n2, read-out: Mean pM GLP-1R.
Where [7] appears, read: cAMP assay, first determination (n1), read-out: Primary assay EC50 Gluc-R (n1).
[8] abbreviates: cAMP assay, second determination (n2), read-out: Primary assay EC50 Gluc-R (n2).
Setting [9] is: cAMP assay, first determination (n1), read-out: Primary assay EC50 GIP-R (n1).
The mark [10] stands for this setting: cAMP assay, second determination (n2), read-out: Primary assay EC50 GIP-R (n2).

Read-outs that look alike come from different tables or passages of the source. Numbered stars: 1 amine (or outer) side, 2 acyl side, 3 side chain; on linkers, the order of the positions; unused ones are H or OH. Square brackets hold non-standard residues; d marks the D form. Side chains are listed from the residue outwards. Peptide text beside a SMILES is read from it. * marks the point of attachment. γGlu = O=C(O)[C@H](CCC(=O)[*:2])N[*:1]; Palmitoyl = CCCCCCCCCCCCCCCC(=O)*; αMeF = C[C@](N)(Cc1ccccc1)C(=O)O; αMeK = C[C@](N)(CCCCN)C(=O)O; Lauroyl = CCCCCCCCCCCC(=O)*; αMeS = C[C@](N)(CO)C(=O)O; AEEA = NCCOCCOCC(=O)O; Aib = CC(C)(N)C(=O)O Some results are limits rather than exact numbers.

T1 sequence (P43220 24-463): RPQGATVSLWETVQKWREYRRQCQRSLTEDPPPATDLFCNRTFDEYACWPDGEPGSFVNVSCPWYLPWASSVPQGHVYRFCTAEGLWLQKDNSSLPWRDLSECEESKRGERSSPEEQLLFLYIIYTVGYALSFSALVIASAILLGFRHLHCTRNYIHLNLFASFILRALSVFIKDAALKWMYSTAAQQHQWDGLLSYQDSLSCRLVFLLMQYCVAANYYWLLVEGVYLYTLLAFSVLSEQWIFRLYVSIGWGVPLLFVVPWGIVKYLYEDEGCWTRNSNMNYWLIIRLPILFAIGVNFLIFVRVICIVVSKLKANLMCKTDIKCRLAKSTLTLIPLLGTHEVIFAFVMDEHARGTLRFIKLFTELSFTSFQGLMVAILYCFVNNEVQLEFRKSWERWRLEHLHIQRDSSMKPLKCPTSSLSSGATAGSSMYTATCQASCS

As to `CC[C@H](C)[C@H](NC(=O)[C@](C)(Cc1ccccc1)NC(=O)[C@H](CCC(=O)O)NC(=O)[C@H](CCCCNC(=O)COCCOCCNC(=O)COCCOCCNC(=O)COCCOCCNC(=O)CCCCCCCCCCCOc1ccc(C(=O)O)cc1)NC(=O)[C@H](C)NC(=O)[C@H](C)NC(=O)[C@H](CCC(=O)O)NC(=O)CNC(=O)[C@H](CCC(=O)O)NC(=O)[C@H](CC(C)C)NC(=O)[C@](C)(Cc1ccccc1)NC(=O)[C@H](CO)NC(=O)[C@](C)(CO)NC(=O)[C@@H](NC(=O)[C@H](CC(=O)O)NC(=O)[C@H](CO)NC(=O)[C@@H](NC(=O)[C@](C)(Cc1ccccc1)NC(=O)[C@H](CO)NC(=O)CNC(=O)[C@H](CCC(=O)O)NC(=O)C(C)(C)NC(=O)[C@@H](N)Cc1c[nH]cn1)[C@@H](C)O)C(C)C)C(=O)N[C@@H](C)C(=O)N[C@@](C)(Cc1ccccc1)C(=O)N[C@H](C(=O)N[C@H](C(=O)N[C@@](C)(CCCCN)C(=O)NCC(=O)NCC(N)=O)C(C)C)C(C)C` [compound 145], the EC50 in assay [1] (setting [4]) is 27 pM; in assay [1] (setting [5]), 15 pM; in assay [1] (setting [6]) it was 21 pM; in assay [2] (Primary assay EC50 Gluc-R (n1), cAMP assay, first determination (n1)) it was at least 25 nM; in assay [2] (read-out: Primary assay EC50 Gluc-R (n2), cAMP assay, second determination (n2)), at least 25 nM; in assay [3] (Primary assay EC50 GIP-R (n1), cAMP assay, first determination (n1)), at least 25 nM. In addition, in assay [3] (read-out: Primary assay EC50 GIP-R (n2), cAMP assay, second determination (n2)), the EC50 was at least 25 nM.
Take `CCCCCCCCCCCCCCCCCC(=O)N[C@@H](CCC(=O)NCCCC[C@H](NC(=O)[C@@H](NC(=O)[C@@H](NC(=O)[C@](C)(Cc1ccccc1)NC(=O)[C@H](C)NC(=O)[C@@H](NC(=O)[C@](C)(Cc1ccccc1)NC(=O)[C@H](CCC(=O)O)NC(=O)[C@](C)(CCCCN)NC(=O)[C@H](C)NC(=O)[C@H](C)NC(=O)[C@H](CCC(=O)O)NC(=O)CNC(=O)[C@H](CCC(=O)O)NC(=O)[C@H](CC(C)C)NC(=O)[C@](C)(Cc1ccccc1)NC(=O)[C@H](CO)NC(=O)[C@](C)(CO)NC(=O)[C@@H](NC(=O)[C@H](CC(=O)O)NC(=O)[C@H](CO)NC(=O)[C@@H](NC(=O)[C@](C)(Cc1ccccc1)NC(=O)[C@H](CO)NC(=O)CNC(=O)[C@H](CCC(=O)O)NC(=O)C(C)(C)NC(=O)[C@@H](N)Cc1c[nH]cn1)[C@@H](C)O)C(C)C)[C@@H](C)CC)C(C)C)C(C)C)C(=O)NCC(=O)NCC(N)=O)C(=O)O` [compound 182]: the EC50 was 130 pM in assay [1] (setting [4]); 52 pM in assay [1] (setting [5]); 89.9 pM in assay [1] (setting [6]); at least 28 nM in assay [2] (setting [7]); at least 28 nM in assay [2] (setting [8]); at least 28 nM in assay [3] (setting [9]). Besides, in assay [3] (setting [10]), the EC50 is at least 28 nM.
For `CCCCCCCCCCCCCCCC(=O)N[C@@H](CCC(=O)NCCCC[C@H](NC(=O)[C@@H](N)Cc1c[nH]cn1)C(=O)N[C@@H](CCC(=O)O)C(=O)NCC(=O)N[C@@H](CO)C(=O)N[C@@](C)(Cc1ccccc1)C(=O)N[C@H](C(=O)N[C@@H](CO)C(=O)N[C@@H](CC(=O)O)C(=O)N[C@H](C(=O)N[C@@](C)(CO)C(=O)N[C@@H](CO)C(=O)N[C@@](C)(Cc1ccccc1)C(=O)N[C@@H](CC(C)C)C(=O)N[C@@H](CCC(=O)O)C(=O)NCC(=O)N[C@@H](CCC(=O)O)C(=O)N[C@@H](C)C(=O)N[C@@H](C)C(=O)N[C@@](C)(CCCCN)C(=O)N[C@@H](CCC(=O)O)C(=O)N[C@@](C)(Cc1ccccc1)C(=O)N[C@H](C(=O)N[C@@H](C)C(=O)N[C@@](C)(Cc1ccccc1)C(=O)N[C@H](C(=O)N[C@H](C(=O)N[C@@](C)(CCCCN)C(=O)NCC(=O)NCC(N)=O)C(C)C)C(C)C)[C@@H](C)CC)C(C)C)[C@@H](C)O)C(=O)O` [compound 98], the EC50 is at least 28000 pM in assay [1] (setting [4]); at least 28000 pM in assay [1] (setting [5]); at least 27500 pM in assay [1] (setting [6]); at least 28 nM in assay [2] (setting [7]); at least 28 nM in assay [2] (setting [8]); at least 28 nM in assay [3] (setting [9]). The EC50 in assay [3] (setting [10]) was at least 28 nM.
For the molecule `CCCCCCCCCCCC(=O)N[C@@H](CCC(=O)NCCOCCOCC(=O)NCCOCCOCC(=O)NCCCC[C@H](NC(=O)CNC(=O)[C@H](CCC(=O)O)NC(=O)[C@H](CC(C)C)NC(=O)[C@H](Cc1ccc(O)cc1)NC(=O)[C@H](CO)NC(=O)[C@H](CO)NC(=O)[C@H](CCCCNC(=O)COCCOCCNC(=O)COCCOCCNC(=O)CC[C@H](NC(=O)CCCCCCCCCCC)C(=O)O)NC(=O)[C@H](CC(=O)O)NC(=O)[C@H](CO)NC(=O)[C@@H](NC(=O)[C@](C)(Cc1ccccc1)NC(=O)[C@H](CO)NC(=O)CNC(=O)[C@H](CCC(=O)O)NC(=O)C(C)(C)NC(=O)[C@@H](N)Cc1c[nH]cn1)[C@@H](C)O)C(=O)N[C@@H](C)C(=O)N[C@@H](C)C(=O)N[C@@](C)(CCCCN)C(=O)N[C@@H](CCC(=O)O)C(=O)N[C@@H](Cc1ccccc1)C(=O)N[C@H](C(=O)N[C@@H](CCCCNC(=O)COCCOCCNC(=O)COCCOCCNC(=O)CC[C@H](NC(=O)CCCCCCCCCCC)C(=O)O)C(=O)N[C@@H](Cc1ccccc1)C(=O)N[C@H](C(=O)N[C@H](C(=O)N[C@@H](CCC(=O)O)C(=O)NCC(=O)NCC(N)=O)C(C)C)C(C)C)[C@@H](C)CC)C(=O)O` [compound 440] (H-H[Aib]EGS[αMeF]TSDK([AEEA-AEEA-γGlu-Lauroyl])SSYLEGK([AEEA-AEEA-γGlu-Lauroyl])AA[αMeK]EFIK([AEEA-AEEA-γGlu-Lauroyl])FVVEGG-NH2; N-terminus assumed), the EC50 in assay [1] (tris-lipidated peptides, mean of n1 and n2, read-out: Primary assay EC50 Mean pM GLP-1R) is 130 pM; in assay [1] (tris-lipidated peptides, replicate n1, read-out: Primary assay EC50 GLP-1R n1), 96.7 pM; in assay [1] (tris-lipidated peptides, replicate n2, read-out: Primary assay EC50 GLP-1R n2), 164 pM; in assay [2] (tris-lipidated peptides, second replicate, read-out: Primary assay EC50 Gluc-R (n2)) it was 19.7 nM; in assay [3] (tris-lipidated peptides, first replicate, read-out: Primary assay EC50 GIP-R (n1)), 19.7 nM.
For the molecule `CCCCCCCCCCCCCCCC(=O)N[C@@H](CCC(=O)NCCCC[C@H](NC(=O)[C@H](CCC(=O)O)NC(=O)C(C)(C)NC(=O)[C@@H](N)Cc1c[nH]cn1)C(=O)N[C@@H](CO)C(=O)N[C@@](C)(Cc1ccccc1)C(=O)N[C@H](C(=O)N[C@@H](CO)C(=O)N[C@@H](CC(=O)O)C(=O)N[C@H](C(=O)N[C@@](C)(CO)C(=O)N[C@@H](CO)C(=O)N[C@@](C)(Cc1ccccc1)C(=O)N[C@@H](CC(C)C)C(=O)N[C@@H](CCC(=O)O)C(=O)NCC(=O)N[C@@H](CCC(=O)O)C(=O)N[C@@H](C)C(=O)N[C@@H](C)C(=O)N[C@@](C)(CCCCN)C(=O)N[C@@H](CCC(=O)O)C(=O)N[C@@](C)(Cc1ccccc1)C(=O)N[C@H](C(=O)N[C@@H](C)C(=O)N[C@@](C)(Cc1ccccc1)C(=O)N[C@H](C(=O)N[C@H](C(=O)N[C@@](C)(CCCCN)C(=O)NCC(=O)NCC(N)=O)C(C)C)C(C)C)[C@@H](C)CC)C(C)C)[C@@H](C)O)C(=O)O` [compound 96] (H-H[Aib]EK([γGlu-Palmitoyl])S[αMeF]TSDV[αMeS]S[αMeF]LEGEAA[αMeK]E[αMeF]IA[αMeF]VV[αMeK]GG-NH2; N-terminus assumed), the EC50 is 920 pM in assay [1] (setting [4]); 570 pM in assay [1] (setting [5]); 746 pM in assay [1] (setting [6]); at least 27 nM in assay [2] (setting [7]); at least 27 nM in assay [2] (setting [8]); at least 27 nM in assay [3] (setting [9]). Further, the EC50 in assay [3] (setting [10]) was at least 27 nM.
As to `CC[C@H](C)[C@H](NC(=O)[C@](C)(Cc1ccccc1)NC(=O)[C@H](CCC(=O)O)NC(=O)[C@H](CCCCNC(=O)CC[C@H](NC(=O)CCCCCCCCCCCCCCCCC(=O)O)C(=O)O)NC(=O)[C@H](C)NC(=O)[C@H](C)NC(=O)[C@H](CCC(=O)O)NC(=O)CNC(=O)[C@H](CCC(=O)O)NC(=O)[C@H](CC(C)C)NC(=O)[C@](C)(Cc1ccccc1)NC(=O)[C@H](CO)NC(=O)[C@](C)(CO)NC(=O)[C@@H](NC(=O)[C@H](CC(=O)O)NC(=O)[C@H](CO)NC(=O)[C@@H](NC(=O)[C@](C)(Cc1ccccc1)NC(=O)[C@H](CO)NC(=O)CNC(=O)[C@H](CCC(=O)O)NC(=O)C(C)(C)NC(=O)[C@@H](N)Cc1c[nH]cn1)[C@@H](C)O)C(C)C)C(=O)N[C@@H](C)C(=O)N[C@@](C)(Cc1ccccc1)C(=O)N[C@H](C(=O)N[C@H](C(=O)N[C@@](C)(CCCCN)C(=O)NCC(=O)NCC(N)=O)C(C)C)C(C)C` [compound 155], the EC50 in assay [1] (setting [4]) is 290 pM; in assay [1] (setting [5]) it was 190 pM; in assay [1] (setting [6]), 238 pM; in assay [2] (setting [7]) it was at least 28 nM; in assay [2] (setting [8]), at least 28 nM; in assay [3] (setting [9]) it was at least 28 nM. Besides, the EC50 in assay [3] (setting [10]) is at least 28 nM.
